Experimental findings from ChEMBL document CHEMBL6127128, “Discovery of the First-in-Class Dual-Target ROCK/HDAC Inhibitor with Potent Antitumor Efficacy in Vivo That Trigger Antitumor Immunity” (J Med Chem, 2024) are described below.

Molecules are shown by their SMILES. ≈ marks a conversion by molar mass, not a printed value. Calls of active or inactive are those of the source. No cut-off for these calls is given here.

The test system of data set [1] is 4T1. As to the kind of experiment: Antitumor immunity against mouse 4T1 cells implanted in Balb/c mouse assessed as increase in CD8+ T cells in tumor tissue at 25 mg/kg, po administered daily for 15 days by flow cytometry. It is filed as functional, organism-based. The conditions noted are these: time 15.0 day.
Data set [2] deals with 4T1. The data set is described as follows: Antitumor immunity against mouse 4T1 cells implanted in Balb/c mouse assessed as increase in CD3+ T cells in tumor tissue at 50 mg/kg, po administered daily for 15 days by flow cytometry relative to SAHA. The conditions noted are these: time 15 day. In kind it is functional. A general note: A flow cytometer gives signals particle by particle.

Data set [3] in a line: Aqueous solubility of the compound in aqueous buffer at pH 7.4. It is filed as physicochemical.
A short description of data set [4]: Toxicity against Balb/c mouse implanted with mouse 4T1 cells assessed as effect on morphological changes in heart at 25 to 50 mg/kg, po administered daily for 15 days by Hematoxylin-Eosin staining based analysis. In kind it is organism-based. The conditions noted are these: in vivo, 360 h, dose 25-50 mg/kg, time 15 day.
The test system of data set [5] is 4T1. As to the kind of experiment: Antitumor immunity against mouse 4T1 cells implanted in Balb/c mouse assessed as increase in CD86+ dendritic cells in tumor tissue at 50 mg/kg, po administered daily for 15 days by immunohistochemistry relative to SAHA. In kind it is functional. The note with it: time 15 day.
Data set [6] in a line: Toxicity against Balb/c mouse implanted with mouse 4T1 cells assessed as effect on body weight changes at 25 to 50 mg/kg, po administered daily for 15 days. It is filed as organism-based. The note with it: in vivo, 360 h, dose 25-50 mg/kg, time 15 day.
Data set [7] deals with 4T1. As to the kind of experiment: Antitumor immunity against mouse 4T1 cells implanted in Balb/c mouse assessed as increase in CD3+ T cells in tumor tissue at 25 mg/kg, po administered daily for 15 days by flow cytometry. It is filed as functional, organism-based. The conditions noted are these: time 15.0 day.
A short description of data set [8]: Oral bioavailability in Balb/c mouse at 50 mg/kg measured for 24 hrs by LC-MS/MS analysis. It is filed as ADME, organism-based. The note with it: in vivo.
In data set [9] the test system is 4T1. The data set is described as follows: Antitumor immunity against mouse 4T1 cells implanted in Balb/c mouse assessed as increase in CD86+ dendritic cells in tumor tissue at 25 mg/kg, po administered daily for 15 days by immunohistochemistry. It is filed as functional, organism-based. The conditions noted are these: time 15.0 day.
In data set [10] the test system is 4T1. As to the kind of experiment: Antitumor immunity against mouse 4T1 cells implanted in Balb/c mouse assessed as increase in CD4+ T cells in tumor tissue at 25 mg/kg, po administered daily for 15 days by flow cytometry. The note with it: time 15.0 day. It is filed as functional, organism-based.
The nature of data set [11]: Toxicity against Balb/c mouse implanted with mouse 4T1 cells assessed as effect on morphological changes in spleen at 25 to 50 mg/kg, po administered daily for 15 days by Hematoxylin-Eosin staining based analysis. The conditions noted are these: in vivo, 360 h, dose 25-50 mg/kg, time 15 day. In kind it is organism-based.
The next data set deals with Histone deacetylase 9 (Homo sapiens, UniProt Q9UKV0). The data set is described as follows: Inhibition of HDAC9 (unknown origin) using Ac-Leu-Gly-Lys(tfa)-AMC as substrate preincubated for 5 mins followed by substrate addition for 30 mins and measured following trypsin addition for 30 mins by fluorescence based analysis.
Chain of Histone deacetylase 9 (Q9UKV0 whole entry): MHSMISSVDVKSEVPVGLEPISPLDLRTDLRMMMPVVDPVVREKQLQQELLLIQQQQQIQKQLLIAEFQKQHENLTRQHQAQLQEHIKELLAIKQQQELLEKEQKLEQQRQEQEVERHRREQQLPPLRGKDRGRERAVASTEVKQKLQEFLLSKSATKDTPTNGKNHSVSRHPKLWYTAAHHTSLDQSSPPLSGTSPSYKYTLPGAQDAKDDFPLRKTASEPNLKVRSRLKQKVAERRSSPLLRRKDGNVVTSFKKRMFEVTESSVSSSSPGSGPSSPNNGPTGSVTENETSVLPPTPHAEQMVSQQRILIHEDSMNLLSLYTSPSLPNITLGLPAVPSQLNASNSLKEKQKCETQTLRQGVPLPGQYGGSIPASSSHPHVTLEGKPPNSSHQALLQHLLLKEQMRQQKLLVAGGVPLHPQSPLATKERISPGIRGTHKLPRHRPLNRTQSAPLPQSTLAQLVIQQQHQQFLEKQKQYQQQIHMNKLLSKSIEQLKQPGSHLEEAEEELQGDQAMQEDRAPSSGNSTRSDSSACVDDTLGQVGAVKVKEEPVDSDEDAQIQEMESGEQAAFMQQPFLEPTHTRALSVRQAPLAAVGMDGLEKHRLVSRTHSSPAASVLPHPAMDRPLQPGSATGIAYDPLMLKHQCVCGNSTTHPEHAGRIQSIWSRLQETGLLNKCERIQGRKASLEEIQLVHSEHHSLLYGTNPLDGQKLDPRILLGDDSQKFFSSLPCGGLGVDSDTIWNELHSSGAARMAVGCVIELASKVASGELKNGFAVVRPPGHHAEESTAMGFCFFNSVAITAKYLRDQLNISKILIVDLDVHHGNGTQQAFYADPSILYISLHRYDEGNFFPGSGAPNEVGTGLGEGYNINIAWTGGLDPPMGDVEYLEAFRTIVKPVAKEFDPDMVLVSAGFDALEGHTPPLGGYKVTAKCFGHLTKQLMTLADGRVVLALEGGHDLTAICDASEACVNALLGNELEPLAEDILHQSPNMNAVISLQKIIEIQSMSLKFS
Data set [12] deals with MDA-MB-231. As to the kind of experiment: Induction of immunogenic cell death-associated DAMP release in human MDA-MB-231 cells assessed as decrease in HMGB1 expression level at 1 to 10 uM incubated for 24 hrs by western blot analysis. The conditions noted are these: dose 1-10 µM. In kind it is functional, cell-based.
Data set [13] deals with 4T1. The data set is described as follows: Antitumor immunity against mouse 4T1 cells implanted in Balb/c mouse assessed as increase in CD40+ dendritic cells in tumor tissue at 25 mg/kg, po administered daily for 15 days by immunohistochemistry. The conditions noted are these: time 15.0 day. In kind it is functional, organism-based.
Data set [14] has as its system MDA-MB-231. As to the kind of experiment: Induction of immunogenic cell death-associated DAMP release in human MDA-MB-231 cells assessed as increase in CRT expression level by measuring increase in green fluorescence intensity at 1 to 10 uM incubated for 24 hrs by DAPI staining based immunofluorescence analysis. In kind it is functional. The note with it: dose 1-10 µM.

The next data set addresses T1, Histone deacetylase 8 (Homo sapiens, UniProt Q9BY41).
T1 sequence (Q9BY41 whole entry): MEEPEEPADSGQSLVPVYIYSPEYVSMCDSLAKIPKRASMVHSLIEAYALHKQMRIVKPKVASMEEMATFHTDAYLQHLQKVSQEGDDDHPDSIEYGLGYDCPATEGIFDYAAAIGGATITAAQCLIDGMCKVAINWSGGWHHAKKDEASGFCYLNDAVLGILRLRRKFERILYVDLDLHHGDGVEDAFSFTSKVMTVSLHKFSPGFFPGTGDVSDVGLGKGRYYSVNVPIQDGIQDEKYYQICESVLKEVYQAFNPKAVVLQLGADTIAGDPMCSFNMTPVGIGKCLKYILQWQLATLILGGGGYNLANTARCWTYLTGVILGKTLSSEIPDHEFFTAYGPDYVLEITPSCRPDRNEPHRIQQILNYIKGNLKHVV
The data set is described as follows: Inhibition of HDAC8 (unknown origin) using Ac-Leu-Gly-Lys(tfa)-AMC as substrate preincubated for 5 mins followed by substrate addition for 30 mins and measured following trypsin addition for 30 mins by fluorescence based analysis.

In data set [15] the test system is MDA-MB-231. As to the kind of experiment: Induction of immunogenic cell death-associated DAMP release in human MDA-MB-231 cells assessed as increase in extracellular HMGB1 release by mesuring increase in HMGB1 level in medium supernatant at 10 uM incubated for 24 hrs by ELISA. It is filed as functional, cell-based. For orientation: ELISA stands for enzyme-linked immunosorbent assay.

Another data set deals with Histone deacetylase 4 (Homo sapiens, UniProt P56524). As to the kind of experiment: Inhibition of HDAC4 (unknown origin) using Ac-Leu-Gly-Lys(tfa)-AMC as substrate preincubated for 5 mins followed by substrate addition for 30 mins and measured following trypsin addition for 30 mins by fluorescence based analysis.
Chain of Histone deacetylase 4 (P56524 whole entry): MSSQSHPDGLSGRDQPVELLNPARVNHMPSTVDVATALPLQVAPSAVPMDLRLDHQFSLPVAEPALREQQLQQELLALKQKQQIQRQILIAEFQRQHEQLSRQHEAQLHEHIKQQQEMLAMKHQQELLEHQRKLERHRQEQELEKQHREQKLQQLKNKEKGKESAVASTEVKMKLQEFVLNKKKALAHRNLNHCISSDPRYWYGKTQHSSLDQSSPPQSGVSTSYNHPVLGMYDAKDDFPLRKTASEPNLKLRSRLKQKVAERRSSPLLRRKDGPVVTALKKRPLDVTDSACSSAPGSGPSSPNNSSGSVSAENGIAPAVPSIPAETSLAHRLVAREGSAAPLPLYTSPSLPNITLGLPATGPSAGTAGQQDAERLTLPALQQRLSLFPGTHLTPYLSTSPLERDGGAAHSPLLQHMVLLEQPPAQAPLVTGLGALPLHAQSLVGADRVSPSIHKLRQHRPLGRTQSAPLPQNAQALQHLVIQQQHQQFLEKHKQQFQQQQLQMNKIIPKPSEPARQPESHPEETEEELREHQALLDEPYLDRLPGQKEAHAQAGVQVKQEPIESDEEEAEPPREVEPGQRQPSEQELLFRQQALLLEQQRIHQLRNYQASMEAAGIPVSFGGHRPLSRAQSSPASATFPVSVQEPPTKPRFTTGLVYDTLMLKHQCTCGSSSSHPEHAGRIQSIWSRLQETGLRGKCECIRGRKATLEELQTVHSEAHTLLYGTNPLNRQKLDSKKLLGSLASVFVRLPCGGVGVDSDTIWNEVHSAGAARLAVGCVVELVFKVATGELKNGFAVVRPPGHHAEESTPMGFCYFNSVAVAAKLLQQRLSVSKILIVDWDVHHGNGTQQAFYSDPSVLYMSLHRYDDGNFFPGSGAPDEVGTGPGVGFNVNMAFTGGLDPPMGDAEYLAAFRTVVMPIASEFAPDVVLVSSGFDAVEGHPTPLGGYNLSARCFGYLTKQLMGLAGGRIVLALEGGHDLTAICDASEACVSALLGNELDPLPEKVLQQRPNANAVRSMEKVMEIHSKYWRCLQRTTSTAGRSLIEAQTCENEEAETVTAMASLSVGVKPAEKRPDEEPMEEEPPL

For orientation: solubility means the dissolved amount per volume that the medium holds. What is called bioavailability is the share of a dose that reaches the circulation, judged against a reference dose that is usually intravenous. Broadly, the IC50 is the concentration that gives 50% inhibition. A higher IC50 goes with a need for much substance. On to `O=C(CCCCCCNC(=O)c1cc2cc(-c3cn[nH]c3)ccc2s1)NO`, for which the outcome with 4T1 [1], with 4T1 [7], in the data set with 4T1 [9], with 4T1 [10], in the data set on MDA-MB-231 [12] and with 4T1 [13] was Active. Moreover, the result with MDA-MB-231 [14] and with MDA-MB-231 [15] was Active. The results for the “fold change (FC)” value in the data set with 4T1 [2] and in the data set on 4T1 [5] were 1.36 and 1.82, respectively. In [3], this compound yielded a solubility of 0.695 µg/mL (≈ 1.8 µM). The Activity entry in data set [4], in data set [6] and in data set [11] was “Non-Toxic” in each case. In data set [8], this compound came in with a bioavailability of 0.13%. The IC50 is more than 10 µM against Histone deacetylase 9, 0.00769 µM on Histone deacetylase 8 and more than 10 µM against Histone deacetylase 4.
